# Publication PMC6792352, “Limited Chemical Structural Diversity Found to Modulate Thyroid Hormone Receptor in the Tox21 Chemical Library” (Environmental Health Perspectives, 2019)
# Where a name gives a salt, the structure may show the parent alone.
# Test: in vitro
# Details: rat, gh3-tre-luc cells, AC50 (uM) modified / 1000
row,SMILES,CC50 at 24 h [µM]
1,Clc1cc(Cl)c(OCC#CI)cc1Cl [Haloprogin],11.9
2,OCCOCCN1CCN(C2=Nc3ccccc3Sc3ccccc32)CC1 [Quetiapine],> 50
3,CC(C)CC(C)O (stereo not shown) [4-Methyl-2-pentanol],> 90
4,FC(F)(F)c1cccc(C2=CCN(CCc3ccc4ccccc4c3)CC2)c1 [Xaliproden hydrochloride],> 50
5,OCC1CC=CCC1 (stereo not shown) [Cyclohex-3-en-1-ylmethanol],> 90
6,CO[SiH](C)C [Methylpolysilicone],> 100
7,O=C(O)C(=O)Cc1c[nH]c2ccccc12 [Indole-3-pyruvic acid],> 90
8,CC1(C)[C@@H]2CC[C@@]1(C)[C@H](OC(=O)CSC#N)C2 [Thanite],> 50
9,CC(C)n1c(/C=C/[C@H](O)C[C@H](O)CC(=O)O)c(-c2ccc(F)cc2)c2ccccc21 (racemic) [Fluvastatin],> 90
10,C=CC(=C)CCCC(C)(C)OC(C)=O [2-methyl-6-methylideneoct-7-en-2-yl acetate],> 90
11,C[C@@H](Oc1ccc(CNC(=O)c2cccnc2Oc2ccc3c(c2)OCO3)c(F)c1)C(=O)O [CP-671305],> 90
12,CN1CCC(OC(=O)C(Oc2ccc(Cl)cc2)Oc2ccc(Cl)cc2)CC1 [Lifibrate],27.6
13,CCCCCCCCCCCCCCNCCO [Myralact],> 50
14,CCOC(=O)c1ccccc1 [Ethyl benzoate],> 90
15,CCCC(C)C(=O)OCC (stereo not shown) [Ethyl 2-methylpentanoate],> 90
16,COP(=S)(OC)Oc1ccc(SC)c(C)c1 [Fenthion],> 90
17,COc1ccc(Br)c(C)c1 [1-Bromo-4-methoxy-2-methylbenzene],> 90
18,Cc1cccn2c(=O)c(-c3nnn[nH]3)cnc12 [Pemirolast potassium],> 50
19,CC(=O)Nc1ncc([N+](=O)[O-])s1 [Nithiamide],> 50
20,C=CCSSCC=C [Diallyl disulfide],> 90
21,O=[N+]([O-])c1ccc2ccc3cccc4ccc1c2c34 [1-Nitropyrene],> 90
22,CN(C)CCCNCCC#N [3-{[3-(Dimethylamino)propyl]amino}propanenitrile],> 90
23,CCCOCCOCCO [2-(2-Propoxyethoxy)ethanol],> 90
24,CN/C(=N\[N+](=O)[O-])NCc1cnc(Cl)s1 [Clothianidin],> 90

row,SMILES,CC50 at 24 h [µM]
1,CS(=O)(=O)c1cc(C(F)(F)F)ccc1C(=O)c1cnoc1C1CC1 [Isoxaflutole],> 90
2,CN1CCN(c2ccccc2/C=C2\SCCN(c3ccc(Cl)c(Cl)c3)C2=O)CC1 [Elzasonan],8.33
3,"COc1cc(C[C@H](C)N)c(OC)cc1Br [S-(+)-2,5-Dimethoxy-4-bromoamphetamine hydrochloride]",61.8
4,"C=CCC=CC [1,4-Hexadiene]",> 90
5,"O=C(Cl)c1c(Cl)cccc1Cl [2,6-Dichlorobenzoyl chloride]",> 90
6,Fc1ccc(C(OCCN2CCN(CCCc3ccccc3)CC2)c2ccc(F)cc2)cc1 [GBR 12909 dihydrochloride],8.65
7,c1ccc2[nH]cnc2c1 [Benzimidazole],> 90
8,"CC1=CC(=O)CC(C)(C)C1=O [2,6,6-Trimethyl-2-cyclohexene-1,4-dione]",> 90
9,CN(C)CCC=C1c2ccccc2COc2ccccc21 [Doxepin hydrochloride],13.5
10,Cc1ccc(Cl)c(O)c1 [2-Chloro-5-methylphenol],> 50
11,CCOc1ccc2nc(S(N)(=O)=O)sc2c1 [Ethoxzolamide],> 50
12,"Brc1ccc(Br)c(Br)c1 [1,2,4-Tribromobenzene]",> 90
13,"CCCCC(CC)COC(=O)COc1cc(Cl)c(Cl)cc1Cl (stereo not shown) [2,4,5-T 2-Ethylhexyl]",> 90
14,Cc1cc(C(C)(C)C)c(O)c(C)c1Cn1c(=O)n(Cc2c(C)cc(C(C)(C)C)c(O)c2C)c(=O)n(Cc2c(C)cc(C(C)(C)C)c(O)c2C)c1=O [Cyanox CY 1790],> 90
15,"O=C(O)COc1cc(Cl)c(Cl)cc1Cl [2,4,5-Trichlorophenoxyacetic acid]",> 90
16,CCCCCCCCCCCCCCCCN [Hexadecylamine],> 50
17,CO[C@H]1C[C@@H]2CC[C@@H](C)[C@@](O)(O2)C(=O)C(=O)N2CCCC[C@H]2C(=O)O[C@H]([C@H](C)C[C@@H]2CC[C@@H](OC(=O)C(C)(CO)CO)[C@H](OC)C2)CC(=O)[C@H](C)/C=C(\C)[C@@H](O)[C@@H](OC)C(=O)[C@H](C)C[C@H](C)/C=C/C=C/C=C/1C [Temsirolimus],> 50
18,CN1CCC(N(Cc2cccs2)c2ccccc2)CC1 [Thenalidine],27
19,C/C=C/C(=O)CC [4-Hexen-3-one],> 20
20,COc1cc2c(cc1OC)CC(=O)N(CCCN(C)C[C@H]1Cc3cc(OC)c(OC)cc31)CC2 [Ivabradine hydrochloride],> 50
21,"COC(OC)(C(=O)c1ccccc1)c1ccccc1 [2,2-Dimethoxy-1,2-diphenylethanone]",> 90
22,CC(=C(CCO)SSCC1CCCO1)N(C=O)Cc1cnc(C)nc1N (stereo in doubt) [Fursultiamine hydrochloride],> 50
23,O=C(NS(=O)(=O)/C=C/c1cccs1)c1ccc(F)cc1Br [PharmaGSID_48518],> 90
24,CCN(CC#N)c1cccc(C)c1 [2-(Ethyl(3-methylphenyl)amino)acetonitrile],> 90

row,SMILES,CC50 at 24 h [µM]
1,NS(=O)(=O)c1cc2c(cc1Cl)NC(Cc1ccccc1)NS2(=O)=O (stereo not shown) [Benzylhydrochlorothiazide],> 50
2,N[C@@H](Cc1c[nH]c2ccc(O)cc12)C(=O)O [L-5-Hydroxytryptophan],> 90
3,O=C(O)c1ccc2cc(O)ccc2c1 [6-Hydroxy-2-naphthoic acid],> 90
4,CO[C@@]12[C@H](COC(N)=O)C3=C(C(=O)C(C)=C(N)C3=O)N1C[C@@H]1N[C@@H]12 [Mitomycin C],2.52
5,CC(=O)c1cccnc1 [3-Acetylpyridine],> 90
6,O=C1CCCN1C1CCCCC1 [1-Cyclohexylpyrrolidin-2-one],> 90
7,CCCC(C)CO (stereo not shown) [2-Methyl-1-pentanol],> 90
8,CC(=O)Nc1cccc(C)c1 [N-Acetyl-m-toluidine],> 90
9,Cc1ccccc1Cl [2-Chlorotoluene],> 90
10,CC/C=C(\C(=O)N[C@@H]1C(=O)N2C(C(=O)OCOC(=O)C(C)(C)C)=C(COC(N)=O)CS[C@H]12)c1csc(N)n1 [Cefcapene pivoxil hydrochloride],> 50
11,COC(=O)C1=C(C)NC(C)=C(C(=O)OC(C)(C)CN(C)CCC(c2ccccc2)c2ccccc2)C1c1cccc([N+](=O)[O-])c1 (stereo not shown) [lercanidipine hydrochloride],8.65
12,CSc1nc(NC2CC2)nc(NC(C)(C)C)n1 [Cybutryne],> 90
13,CCCCCCOCCOCCO [2-[2-(Hexyloxy)ethoxy]ethanol],> 90
14,CC/C=C\C#N [(2Z)-2-Pentenenitrile],> 90
15,O=C1CCCCCN1 [Caprolactam],> 90
16,O=S(=O)(Cl)c1ccccc1 [Benzenesulfonyl chloride],> 90
17,NC(=S)NS(=O)(=O)c1ccc(N)cc1 [Sulfathiourea],> 50
18,CC#Cc1cc(C)nc(Nc2ccccc2)n1 [Mepanipyrim],> 90
19,"CC(C)CC(=O)CC(C)CC(C)C (stereo not shown) [2,6,8-Trimethyl-4-nonanone]",> 90
20,CC(C)=CCC[C@](C)(O)[C@@H]1CC=C(C)CC1 [Levomenol],> 90
21,COc1cc(C=O)ccc1OC(=O)C(C)C [Vanillin isobutyrate],> 90
22,CCCN(CCC)C(=O)C(CCC(=O)OCCCN1CCN(CCOC(=O)Cc2c(C)n(C(=O)c3ccc(Cl)cc3)c3ccc(OC)cc23)CC1)NC(=O)c1ccccc1 (stereo not shown) [Proglumetacin],10.5
23,CCCCC(F)(F)[C@@]1(O)CC[C@H]2[C@@H](CC(=O)[C@@H]2CCCCCCC(=O)O)O1 [Lubiprostone],> 50

# Same assay, conditions: rat, gh3-tre-luc cells, AC50 (uM) modified / 1000, Tox21_110001=Tox21_111074; viability, 1 nM T3 present, 24 h
row,SMILES,CC50 at 24 h [µM]
1,CC(C)CCON=O [3-Methylbutyl nitrite],> 50

# Same assay, conditions: rat, gh3-tre-luc cells, AC50 (uM) modified / 1000, Tox21_110001=Tox21_200489; viability, 1 nM T3 present, 24 h
row,SMILES,CC50 at 24 h [µM]
1,NNCc1ccccc1 [Benzylhydrazine dihydrochloride],> 90

# Same assay, conditions: rat, gh3-tre-luc cells, AC50 (uM) modified / 1000, Tox21_110001=Tox21_200983; viability, 1 nM T3 present, 24 h
row,SMILES,CC50 at 24 h [µM]
1,CC(C)CCON=O [3-Methylbutyl nitrite],> 90

# Same assay, conditions: rat, gh3-tre-luc cells, AC50 (uM) modified / 1000, Tox21_110001=Tox21_201255; viability, 1 nM T3 present, 24 h
row,SMILES,CC50 at 24 h [µM]
1,CCN(CC)N=O [N-Nitrosodiethylamine],> 90

# Same assay, conditions: rat, gh3-tre-luc cells, AC50 (uM) modified / 1000, Tox21_110001=Tox21_201548; viability, 1 nM T3 present, 24 h
row,SMILES,CC50 at 24 h [µM]
1,CN=C=S [Methyl isothiocyanate],> 90

# Same assay, conditions: rat, gh3-tre-luc cells, AC50 (uM) modified / 1000, Tox21_110001=Tox21_201929; viability, 1 nM T3 present, 24 h
row,SMILES,CC50 at 24 h [µM]
1,CC(C)C#N [2-Methylpropanenitrile],> 90

# Same assay, conditions: rat, gh3-tre-luc cells, AC50 (uM) modified / 1000, Tox21_110001=Tox21_202336; viability, 1 nM T3 present, 24 h
row,SMILES,CC50 at 24 h [µM]
1,CCCCN(CCCC)SN(C)C(=O)Oc1cccc2c1OC(C)(C)C2 [Carbosulfan],> 90

# Same assay, conditions: rat, gh3-tre-luc cells, AC50 (uM) modified / 1000, Tox21_110001=Tox21_202792; viability, 1 nM T3 present, 24 h
row,SMILES,CC50 at 24 h [µM]
1,"Clc1cc2c(cc1Cl)Oc1cc(Cl)c(Cl)cc1O2 [2,3,7,8-Tetrachlorodibenzo-p-dioxin]",> 0.3

# Same assay, conditions: rat, gh3-tre-luc cells, AC50 (uM) modified / 1000, Tox21_110001=Tox21_300420; viability, 1 nM T3 present, 24 h
row,SMILES,CC50 at 24 h [µM]
1,O=C(Nc1ccccc1)c1ccccc1I [Benodanil],> 90

# Same assay, conditions: rat, gh3-tre-luc cells, AC50 (uM) modified / 1000, Tox21_110001=Tox21_300473; viability, 1 nM T3 present, 24 h
row,SMILES,CC50 at 24 h [µM]
1,CCCCN(CCCC)SN(C)C(=O)Oc1cccc2c1OC(C)(C)C2 [Carbosulfan],24.2

# Same assay, conditions: rat, gh3-tre-luc cells, AC50 (uM) modified / 1000, Tox21_110001=Tox21_300912; viability, 1 nM T3 present, 24 h
row,SMILES,CC50 at 24 h [µM]
1,CN=C=S [Methyl isothiocyanate],> 200
